Experimental data reported in patent US11590139B2, “Substituted aminopurine compounds, compositions thereof, and methods of treatment therewith” (Signal Pharmaceuticals, LLC, priority 2014, dated 2023).
Read-outs that look alike come from different tables or passages of the source.

Test system: Lox-IMVI melanoma cell line
Assay: Lox-IMVI anti-proliferative assay (growth inhibition, Cell Titer-Glo)
Assay type: cell-based, human
Conditions: Homo sapiens
Method in brief: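 Cells grown in RPMI + 10% FBS were exposed to compound at 0.5 nM to 10 μM (10-point, 3-fold dilution, duplicate, 0.2% DMSO final) for 72 h at 37 °C, 5% CO2. Viability was read by ATP luminescence at t0 and 72 h. IC50 came from a four-parameter logistic fit normalized to DMSO control.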

[1] = IC50 activity level in the cell-based Lox-IMVI anti-proliferative assay, read-out: Activity
[2] = Lox-IMVI anti-proliferative assay, IC50 activity level, read-out: Activity
[3] = Lox-IMVI melanoma cell line, anti-proliferative assay, read-out: Activity (IC50 activity level)

IC50 [1] [nM]	IC50 [2] [nM]	SMILES	also measured
> 1000	–	NC(=O)[C@H]1CC[C@@H](n2c(Nc3cccc(Cl)c3Cl)nc3cnc(NC4CCOCC4)nc32)CC1 [Example 62, (1s,4s)-4-(8-(2,3-dichlorophenylamino)-2-(tetrahydro-2H-pyran-4-ylamino)-9H-purin-9-yl)cyclohexanecarboxamide]	–
> 1000	–	CC1(C)CC[C@@H](Nc2ncc3nc(Nc4c(F)cc(F)cc4Cl)n([C@H]4CC[C@@H](C(N)=O)CC4)c3n2)C[C@H]1O [Example 385, (1S,4s)-4-(8-(2-chloro-4,6-difluorophenylamino)-2-((1R,3R)-3-hydroxy-4,4-dimethylcyclohexylamino)-9H-purin-9-yl)cyclohexanecarboxamide]	–
> 1000	–	NC(=O)[C@H]1CC[C@@H](n2c(Nc3c(F)cc(F)cc3Cl)nc3cnc(N[C@H]4CCC[C@@H](O)C4)nc32)CC1 [Example 371, (1R,4s)-4-(8-(2-chloro-4,6-difluorophenylamino)-2-((1S,3R)-3-hydroxycyclohexylamino)-9H-purin-9-yl)cyclohexanecarboxamide]	–
> 1000	–	CC(C)Nc1ncc2nc(Nc3c(F)cc(Cl)cc3F)n([C@H]3CC[C@@H](C(N)=O)CC3)c2n1 [Example 124, (1s,4s)-4-(8-(4-chloro-2,6-difluorophenylamino)-2-(isopropylamino)-9H-purin-9-yl)cyclohexanecarboxamide]	–
–	250 to 500	C[C@@H](CO)Nc1ncc2nc(Nc3c(F)cc(F)cc3F)n([C@H]3CC[C@@](C)(C(N)=O)CC3)c2n1 [Example 546, (1R,4s)-4-(2-((S)-1-hydroxypropan-2-ylamino)-8-(2,4,6-trifluorophenylamino)-9H-purin-9-yl)-1-methylcyclohexanecarboxamide]	–
–	–	NC(=O)[C@H]1CC[C@@H](n2c(Nc3c(F)cc(Cl)cc3Cl)nc3cnc(N[C@@H]4CCCN(c5ccccc5)C4)nc32)CC1 [Example 748, (1S,4s)-4-(8-(2,4-dichloro-6-fluorophenylamino)-2-((R)-1-phenylpiperidin-3-ylamino)-9H-purin-9-yl)cyclohexanecarboxamide]	IC50 [3]: > 1000 nM
–	500 to 1000	CC(C)Nc1ncc2nc(Nc3c(F)cc(C#N)cc3Cl)n([C@H]3CC[C@@H](C(N)=O)CC3)c2n1 [Example 430, (1s,4s)-4-(8-(2-chloro-4-cyano-6-fluorophenylamino)-2-(isopropylamino)-9H-purin-9-yl)cyclohexanecarboxamide]	–
–	> 1000	C[C@]1(C(N)=O)CC[C@H](n2c(Nc3c(F)cc(F)cc3Cl)nc3cnc(NC4CCCC4)nc32)CC1 [Example 491, (1r,4r)-4-(8-(2-chloro-4,6-difluorophenylamino)-2-(cyclopentylamino)-9H-purin-9-yl)-1-methylcyclohexanecarboxamide]	–
–	–	CC1(C)COCC[C@H]1Nc1ncc2nc(Nc3c(Cl)cc(Cl)cc3Cl)n([C@H]3CC[C@@H](C(N)=O)CC3)c2n1 [Example 766, (1S,4s)-4-(2-((R)-3,3-dimethyltetrahydro-2H-pyran-4-ylamino)-8-(2,4,6-trichlorophenylamino)-9H-purin-9-yl)cyclohexanecarboxamide]	IC50 [3]: 500 to 1000 nM
–	–	N#Cc1cc(Cl)c(Nc2nc3cnc(NC4CCC(c5ncno5)CC4)nc3n2[C@H]2CC[C@@H](C(N)=O)CC2)c(Cl)c1 (stereo partly drawn) [Example 681, (1s,4s)-4-(2-(4-(1,2,4-oxadiazol-5-yl)cyclohexylamino)-8-(2,6-dichloro-4-cyanophenylamino)-9H-purin-9-yl)cyclohexanecarboxamide]	IC50 [3]: > 1000 nM
–	–	CNC(=O)N1CCC[C@@H](Nc2ncc3nc(Nc4c(Cl)cc(Cl)cc4Cl)n([C@H]4CC[C@@H](C(N)=O)CC4)c3n2)C1 [Example 705, (R)-3-(9-((1s,4S)-4-carbamoylcyclohexyl)-8-(2,4,6-trichlorophenylamino)-9H-purin-2-ylamino)-N-methylpiperidine-1-carboxamide]	IC50 [3]: > 1000 nM
> 1000	–	NC(=O)[C@H]1CC[C@@H](n2c(Nc3cccc(F)c3Cl)nc3cnc(NC4CCOCC4)nc32)CC1 [Example 61, (1s,4s)-4-(8-(2-chloro-3-fluorophenylamino)-2-(tetrahydro-2H-pyran-4-ylamino)-9H-purin-9-yl)cyclohexanecarboxamide]	–
–	500 to 1000	C[C@@H](CO)Nc1ncc2nc(Nc3c(Cl)cc(C(F)(F)F)cc3Cl)n([C@H]3CC[C@@](C)(C(N)=O)CC3)c2n1 [Example 554, (1R,4s)-4-(8-(2,6-dichloro-4-(trifluoromethyl)phenylamino)-2-((S)-1-hydroxypropan-2-ylamino)-9H-purin-9-yl)-1-methylcyclohexanecarboxamide]	–
> 1000	–	NC(=O)[C@H]1CC[C@@H](n2c(Nc3c(Cl)cccc3Cl)nc3cnc(N[C@@H]4CCC[C@H]4O)nc32)CC1 [Example 253, (1S,4s)-4-(8-(2,6-dichlorophenylamino)-2-((1R,2R)-2-hydroxycyclopentylamino)-9H-purin-9-yl)cyclohexanecarboxamide]	–
–	–	C[C@]1(C(N)=O)CC[C@@H](n2c(Nc3c(F)cc(Cl)cc3Cl)nc3cnc(N[C@@H]4CCOC[C@H]4F)nc32)CC1 [Example 726, (1S,4s)-4-(8-(2,4-dichloro-6-fluorophenylamino)-2-((3S,4R)-3-fluorotetrahydro-2H-pyran-4-ylamino)-9H-purin-9-yl)-1-methylcyclohexanecarboxamide]	IC50 [3]: < 250 nM
–	–	N#Cc1cc(F)c(Nc2nc3cnc(NC[C@@H]4CCCC[C@H]4O)nc3n2[C@H]2CC[C@@H](C(N)=O)CC2)c(Cl)c1 [Example 664, (1R,4s)-4-(8-(2-chloro-4-cyano-6-fluorophenylamino)-2-(((1S,2R)-2-hydroxycyclohexyl)methylamino)-9H-purin-9-yl)cyclohexanecarboxamide]	IC50 [3]: > 1000 nM
–	500 to 1000	N#Cc1cc(F)c(Nc2nc3cnc(N[C@@H]4CCC[C@H](O)C4)nc3n2[C@H]2CC[C@@H](C(N)=O)CC2)c(Cl)c1 [Example 456, (1S,4s)-4-(8-(2-chloro-4-cyano-6-fluorophenylamino)-2-((1R,3S)-3-hydroxycyclohexylamino)-9H-purin-9-yl)cyclohexanecarboxamide]	–
–	> 1000	C[C@]1(C(N)=O)CC[C@H](n2c(Nc3c(Cl)cc(F)cc3Cl)nc3cnc(NC4CCC(F)(F)CC4)nc32)CC1 [Example 476, (1r,4r)-4-(8-(2,6-dichloro-4-fluorophenylamino)-2-(4,4-difluorocyclohexylamino)-9H-purin-9-yl)-1-methylcyclohexanecarboxamide]	–
–	> 1000	NC(=O)[C@H]1CC[C@@H](n2c(Nc3c(Cl)cc(Cl)cc3Cl)nc3cnc(N[C@H]4CCCC[C@H]4O)nc32)CC1 [Example 514, (1R,4s)-4-(2-((1S,2R)-2-hydroxycyclohexylamino)-8-(2,4,6-trichlorophenylamino)-9H-purin-9-yl)cyclohexanecarboxamide]	–
> 1000	–	CC1(C)CC[C@@H](Nc2ncc3nc(Nc4c(Cl)cc(F)cc4Cl)n([C@H]4CC[C@@H](C(N)=O)CC4)c3n2)C[C@H]1O [Example 388, (1S,4s)-4-(8-(2,6-dichloro-4-fluorophenylamino)-2-((1R,3R)-3-hydroxy-4,4-dimethylcyclohexylamino)-9H-purin-9-yl)cyclohexanecarboxamide]	–
500 to 1000	–	NC(=O)[C@H]1CC[C@@H](n2c(Nc3cc(F)c(F)cc3F)nc3cnc(NC4CCOCC4)nc32)CC1 [Example 58, (1s,4s)-4-(2-(tetrahydro-2H-pyran-4-ylamino)-8-(2,4,5-trifluorophenylamino)-9H-purin-9-yl)cyclohexanecarboxamide]	–
